The values below come from ChEMBL document CHEMBL1157802, “5-Functionalized indazoles as glucocorticoid receptor agonists” (Bioorg Med Chem Lett, 2010).

As a reminder, the inhibition is how much of the control response was suppressed. By EC50 is commonly meant the midpoint of the concentration-response curve.

Each structure is given as a SMILES string. Where only a bound is given, the exact number is not on record here.

The target in data set [1] is Histamine H1 receptor (Homo sapiens) (UniProt P35367). Nature of the data set: Inhibition of histamine H1 receptor at 1 uM.
Sequence of Histamine H1 receptor (Homo sapiens) (P35367 whole entry): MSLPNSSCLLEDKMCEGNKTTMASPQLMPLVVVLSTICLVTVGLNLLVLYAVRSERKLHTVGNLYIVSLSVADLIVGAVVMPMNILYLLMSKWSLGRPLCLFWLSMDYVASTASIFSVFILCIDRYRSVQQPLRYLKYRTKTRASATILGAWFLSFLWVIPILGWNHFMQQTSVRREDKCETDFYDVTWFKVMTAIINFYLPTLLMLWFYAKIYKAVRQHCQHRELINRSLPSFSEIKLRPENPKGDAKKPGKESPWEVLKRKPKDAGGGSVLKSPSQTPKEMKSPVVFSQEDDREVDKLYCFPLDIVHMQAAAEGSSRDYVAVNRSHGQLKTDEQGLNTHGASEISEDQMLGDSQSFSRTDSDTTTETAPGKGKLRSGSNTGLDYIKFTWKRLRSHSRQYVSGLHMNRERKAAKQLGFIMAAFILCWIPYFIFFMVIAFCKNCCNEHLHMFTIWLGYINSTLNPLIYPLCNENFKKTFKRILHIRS
Data set [2] has as its target Muscarinic acetylcholine receptor M3 (Homo sapiens) (UniProt P20309). Nature of the data set: Inhibition of muscarinic M3 receptor at 1 uM.
Data set [3] in a line: Inhibition of central benzodiazepine receptor at 1 uM.
A short description of data set [4]: Selectivity for human glucocorticoid receptor over androgen receptor.
In data set [5] the target is T1, Alpha-1B adrenergic receptor (Homo sapiens) (UniProt P35368).
T1 sequence (whole entry): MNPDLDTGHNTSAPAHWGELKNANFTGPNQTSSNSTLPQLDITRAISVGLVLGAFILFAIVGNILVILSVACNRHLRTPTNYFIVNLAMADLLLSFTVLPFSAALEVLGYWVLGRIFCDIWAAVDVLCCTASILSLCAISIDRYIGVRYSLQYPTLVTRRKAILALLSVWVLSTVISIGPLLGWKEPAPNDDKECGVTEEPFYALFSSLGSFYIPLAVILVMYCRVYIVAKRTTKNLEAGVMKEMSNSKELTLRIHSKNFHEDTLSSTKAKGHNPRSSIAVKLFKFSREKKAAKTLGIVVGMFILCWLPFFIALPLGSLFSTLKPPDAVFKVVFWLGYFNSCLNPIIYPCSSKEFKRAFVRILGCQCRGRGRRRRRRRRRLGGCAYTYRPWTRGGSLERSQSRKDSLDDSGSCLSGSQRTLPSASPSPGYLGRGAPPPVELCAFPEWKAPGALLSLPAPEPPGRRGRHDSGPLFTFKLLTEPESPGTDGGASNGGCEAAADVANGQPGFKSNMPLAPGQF
Nature of the data set: Inhibition of adrenergic Alpha-1B receptor at 1 uM.

Data set [6] in a line: Selectivity for human glucocorticoid receptor over progesterone receptor.
Data set [7] deals with Beta-2 adrenergic receptor (Homo sapiens) (UniProt P07550). Nature of the data set: Inhibition of adrenergic beta2 receptor at 1 uM.
Sequence of Beta-2 adrenergic receptor (Homo sapiens) (P07550 whole entry, looked up): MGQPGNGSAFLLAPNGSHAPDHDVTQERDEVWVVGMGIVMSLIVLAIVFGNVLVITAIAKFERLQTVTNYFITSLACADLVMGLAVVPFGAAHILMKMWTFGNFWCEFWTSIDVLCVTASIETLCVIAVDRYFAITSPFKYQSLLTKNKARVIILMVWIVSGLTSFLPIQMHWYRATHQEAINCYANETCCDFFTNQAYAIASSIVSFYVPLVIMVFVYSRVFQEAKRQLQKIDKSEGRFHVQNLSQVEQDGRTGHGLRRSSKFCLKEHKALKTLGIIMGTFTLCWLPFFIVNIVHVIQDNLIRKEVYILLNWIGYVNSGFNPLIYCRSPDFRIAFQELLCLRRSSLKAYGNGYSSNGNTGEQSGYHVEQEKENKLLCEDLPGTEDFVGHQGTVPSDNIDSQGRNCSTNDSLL
The target of data set [8] is D(1A) dopamine receptor (Homo sapiens) (UniProt P21728). Nature of the data set: Inhibition of dopamine D1 receptor at 1 uM.
Sequence of D(1A) dopamine receptor (Homo sapiens) (P21728 whole entry): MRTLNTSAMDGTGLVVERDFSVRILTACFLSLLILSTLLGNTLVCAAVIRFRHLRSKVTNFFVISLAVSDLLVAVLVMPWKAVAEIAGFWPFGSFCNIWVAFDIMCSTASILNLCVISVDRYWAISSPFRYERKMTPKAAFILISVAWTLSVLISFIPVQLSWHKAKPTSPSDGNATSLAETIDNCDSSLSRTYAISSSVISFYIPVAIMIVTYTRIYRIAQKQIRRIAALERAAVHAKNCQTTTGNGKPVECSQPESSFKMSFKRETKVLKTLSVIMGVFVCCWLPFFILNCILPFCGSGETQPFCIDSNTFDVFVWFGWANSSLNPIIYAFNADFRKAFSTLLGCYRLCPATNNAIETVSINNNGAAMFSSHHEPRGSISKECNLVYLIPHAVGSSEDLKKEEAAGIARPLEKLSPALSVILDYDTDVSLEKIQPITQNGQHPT
Data set [9] deals with hERG (KCNH2) (Homo sapiens, UniProt Q12809). Briefly: Inhibition of human ERG at 1 uM.
Sequence of hERG (KCNH2) (Q12809 whole entry): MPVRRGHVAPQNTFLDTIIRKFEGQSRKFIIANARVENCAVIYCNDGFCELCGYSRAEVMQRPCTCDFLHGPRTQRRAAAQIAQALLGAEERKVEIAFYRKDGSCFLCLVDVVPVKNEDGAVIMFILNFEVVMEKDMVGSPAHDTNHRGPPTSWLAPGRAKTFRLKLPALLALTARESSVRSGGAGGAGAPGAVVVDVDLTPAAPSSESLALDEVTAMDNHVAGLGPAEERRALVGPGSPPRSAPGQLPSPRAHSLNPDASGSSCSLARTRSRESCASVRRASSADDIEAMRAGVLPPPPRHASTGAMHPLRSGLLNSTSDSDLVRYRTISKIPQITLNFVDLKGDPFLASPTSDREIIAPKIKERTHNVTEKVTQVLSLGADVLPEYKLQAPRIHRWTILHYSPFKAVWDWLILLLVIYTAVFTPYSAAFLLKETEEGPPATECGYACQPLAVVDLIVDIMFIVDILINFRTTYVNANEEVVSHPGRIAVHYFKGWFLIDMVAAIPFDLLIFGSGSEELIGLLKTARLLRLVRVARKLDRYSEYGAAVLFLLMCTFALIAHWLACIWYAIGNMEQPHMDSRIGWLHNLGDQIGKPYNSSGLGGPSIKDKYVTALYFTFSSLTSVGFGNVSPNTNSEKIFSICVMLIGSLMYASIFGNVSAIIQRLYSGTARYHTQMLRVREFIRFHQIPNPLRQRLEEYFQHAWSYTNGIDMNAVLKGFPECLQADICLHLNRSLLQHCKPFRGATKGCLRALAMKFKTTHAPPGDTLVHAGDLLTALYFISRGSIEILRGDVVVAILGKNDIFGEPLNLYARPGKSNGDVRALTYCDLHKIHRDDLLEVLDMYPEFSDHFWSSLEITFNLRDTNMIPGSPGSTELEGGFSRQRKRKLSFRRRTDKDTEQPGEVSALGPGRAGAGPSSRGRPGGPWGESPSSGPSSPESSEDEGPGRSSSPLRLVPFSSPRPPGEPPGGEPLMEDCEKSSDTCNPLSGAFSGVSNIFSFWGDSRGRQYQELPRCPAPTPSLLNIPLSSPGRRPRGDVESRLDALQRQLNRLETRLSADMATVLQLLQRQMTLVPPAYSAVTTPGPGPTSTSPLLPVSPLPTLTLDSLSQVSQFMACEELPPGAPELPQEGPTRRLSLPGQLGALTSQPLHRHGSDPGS
Data set [10] in a line: Inhibition of phorbol ester site of PKC at 1 uM.
The nature of data set [11]: Inhibition of rolipram binding site at 1 uM.
The target in data set [12] is T2, Glucocorticoid receptor (Homo sapiens, UniProt P04150).
T2 sequence (P04150 whole entry): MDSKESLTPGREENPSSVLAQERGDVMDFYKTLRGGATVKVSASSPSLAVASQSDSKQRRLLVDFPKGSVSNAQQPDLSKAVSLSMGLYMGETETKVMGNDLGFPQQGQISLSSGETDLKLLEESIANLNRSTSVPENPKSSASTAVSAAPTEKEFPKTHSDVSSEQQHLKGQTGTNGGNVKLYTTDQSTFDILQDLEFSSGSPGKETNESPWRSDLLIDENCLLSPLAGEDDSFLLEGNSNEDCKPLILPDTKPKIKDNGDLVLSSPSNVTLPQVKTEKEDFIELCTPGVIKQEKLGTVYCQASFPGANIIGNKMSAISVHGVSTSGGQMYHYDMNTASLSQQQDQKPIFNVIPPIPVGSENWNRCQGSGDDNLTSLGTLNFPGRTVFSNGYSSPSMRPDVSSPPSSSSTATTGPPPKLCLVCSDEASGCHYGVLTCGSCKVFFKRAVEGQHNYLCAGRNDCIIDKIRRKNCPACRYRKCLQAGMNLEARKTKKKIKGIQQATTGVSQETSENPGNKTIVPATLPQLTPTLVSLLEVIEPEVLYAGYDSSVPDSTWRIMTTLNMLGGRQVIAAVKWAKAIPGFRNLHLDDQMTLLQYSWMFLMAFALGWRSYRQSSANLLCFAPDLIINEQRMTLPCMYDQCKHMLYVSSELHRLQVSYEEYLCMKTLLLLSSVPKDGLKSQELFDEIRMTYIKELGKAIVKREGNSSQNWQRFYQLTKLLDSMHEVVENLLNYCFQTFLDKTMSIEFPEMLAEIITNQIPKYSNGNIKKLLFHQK
Nature of the data set: Agonist activity at glucocorticoid receptor in human fibroblast assessed as inhibition of IL-1-beta-induced IL6 production treated 1 hr before IL1-beta challenge measured after 24 hrs by transrepression assay. The class given is functional.

A short description of data set [13]: Inhibition of calcium channel L type dihydropyridine binding site at 1 uM.
In data set [14] the target is Prostaglandin E2 receptor EP4 subtype (Homo sapiens) (UniProt P35408). Briefly: Inhibition of prostanoid EP4 receptor at 1 uM.
Sequence of Prostaglandin E2 receptor EP4 subtype (Homo sapiens) (P35408 whole entry): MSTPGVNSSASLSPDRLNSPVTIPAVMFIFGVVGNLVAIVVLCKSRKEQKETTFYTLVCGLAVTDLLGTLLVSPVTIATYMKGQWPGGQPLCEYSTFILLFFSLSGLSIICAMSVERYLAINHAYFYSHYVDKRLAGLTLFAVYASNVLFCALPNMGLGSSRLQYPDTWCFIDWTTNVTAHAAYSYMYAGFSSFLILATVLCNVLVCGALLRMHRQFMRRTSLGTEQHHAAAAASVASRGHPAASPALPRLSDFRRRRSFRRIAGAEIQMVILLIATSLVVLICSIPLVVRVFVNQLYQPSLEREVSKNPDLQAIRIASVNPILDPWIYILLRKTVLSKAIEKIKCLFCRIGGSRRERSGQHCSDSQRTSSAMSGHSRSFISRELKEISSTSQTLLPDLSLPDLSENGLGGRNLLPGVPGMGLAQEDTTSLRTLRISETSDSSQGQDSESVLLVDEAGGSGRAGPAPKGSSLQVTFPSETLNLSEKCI
The nature of data set [15]: Inhibition of phencyclidine receptor at 1 uM.
For data set [16], the target named is Sigma non-opioid intracellular receptor 1 (Homo sapiens) (UniProt Q99720). Briefly: Inhibition of sigma 1 receptor at 1 uM.
Sequence of Sigma non-opioid intracellular receptor 1 (Homo sapiens) (Q99720 whole entry): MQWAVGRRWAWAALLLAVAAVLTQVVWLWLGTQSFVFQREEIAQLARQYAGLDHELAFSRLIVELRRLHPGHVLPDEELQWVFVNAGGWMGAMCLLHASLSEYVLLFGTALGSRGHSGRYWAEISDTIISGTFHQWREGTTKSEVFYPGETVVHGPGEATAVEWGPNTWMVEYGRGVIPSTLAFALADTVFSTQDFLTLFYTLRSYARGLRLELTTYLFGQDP
For data set [17], the target named is T3, Alpha-1A adrenergic receptor (Homo sapiens) (UniProt P35348).
T3 sequence (whole entry): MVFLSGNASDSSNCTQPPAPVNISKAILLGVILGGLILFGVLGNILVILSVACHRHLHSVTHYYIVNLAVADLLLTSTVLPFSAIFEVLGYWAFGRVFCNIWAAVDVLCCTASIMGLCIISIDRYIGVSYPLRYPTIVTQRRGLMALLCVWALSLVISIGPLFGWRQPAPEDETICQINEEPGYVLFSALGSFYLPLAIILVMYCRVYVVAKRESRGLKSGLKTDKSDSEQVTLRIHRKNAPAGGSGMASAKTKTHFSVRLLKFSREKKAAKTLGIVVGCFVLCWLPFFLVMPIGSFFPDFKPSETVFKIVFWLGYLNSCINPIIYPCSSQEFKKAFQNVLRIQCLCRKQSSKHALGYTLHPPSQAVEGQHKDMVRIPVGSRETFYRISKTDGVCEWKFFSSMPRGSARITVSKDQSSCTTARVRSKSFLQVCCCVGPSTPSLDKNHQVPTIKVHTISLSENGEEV
Nature of the data set: Inhibition of adrenergic alpha1A receptor at 1 uM.

The target in data set [18] is Mu-type opioid receptor (Homo sapiens) (UniProt P35372). Briefly: Inhibition of mu opioid receptor at 1 uM.
Sequence of Mu-type opioid receptor (Homo sapiens) (P35372 whole entry): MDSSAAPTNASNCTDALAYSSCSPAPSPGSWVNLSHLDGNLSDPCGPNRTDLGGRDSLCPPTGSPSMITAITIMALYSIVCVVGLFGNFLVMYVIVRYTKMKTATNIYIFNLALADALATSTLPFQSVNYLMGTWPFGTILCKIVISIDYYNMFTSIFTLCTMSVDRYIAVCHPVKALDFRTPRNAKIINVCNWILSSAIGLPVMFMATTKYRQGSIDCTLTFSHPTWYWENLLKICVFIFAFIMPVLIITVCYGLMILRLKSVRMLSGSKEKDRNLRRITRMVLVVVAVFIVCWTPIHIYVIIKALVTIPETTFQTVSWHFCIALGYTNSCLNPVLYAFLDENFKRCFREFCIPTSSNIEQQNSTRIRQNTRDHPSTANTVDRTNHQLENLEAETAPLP
Data set [19] has as its target Adenosine receptor A2a (Homo sapiens) (UniProt P29274). Briefly: Inhibition of adenosine A2A receptor at 1 uM.
Data set [20] in a line: Inhibition of nicotinic acetylcholine receptor at 1 uM.
Data set [21] can be described thus: Selectivity for human glucocorticoid receptor over ERbeta.
Data set [22] in a line: Inhibition of sodium channel site 2 at 1 uM.

Sequence of Adenosine receptor A2a (Homo sapiens) (P29274 whole entry): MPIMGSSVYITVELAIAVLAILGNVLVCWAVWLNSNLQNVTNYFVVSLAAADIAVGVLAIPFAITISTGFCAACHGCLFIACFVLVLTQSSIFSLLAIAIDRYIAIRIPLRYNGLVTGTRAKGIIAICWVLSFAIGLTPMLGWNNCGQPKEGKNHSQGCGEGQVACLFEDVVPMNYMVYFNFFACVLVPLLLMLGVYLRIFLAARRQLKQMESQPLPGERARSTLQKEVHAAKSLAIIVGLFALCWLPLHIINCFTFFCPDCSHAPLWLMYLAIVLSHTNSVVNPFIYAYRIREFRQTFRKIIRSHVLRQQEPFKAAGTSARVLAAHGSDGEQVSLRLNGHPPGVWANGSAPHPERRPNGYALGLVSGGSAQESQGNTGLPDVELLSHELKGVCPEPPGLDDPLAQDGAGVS
Sequence of Muscarinic acetylcholine receptor M3 (Homo sapiens) (P20309 whole entry, looked up): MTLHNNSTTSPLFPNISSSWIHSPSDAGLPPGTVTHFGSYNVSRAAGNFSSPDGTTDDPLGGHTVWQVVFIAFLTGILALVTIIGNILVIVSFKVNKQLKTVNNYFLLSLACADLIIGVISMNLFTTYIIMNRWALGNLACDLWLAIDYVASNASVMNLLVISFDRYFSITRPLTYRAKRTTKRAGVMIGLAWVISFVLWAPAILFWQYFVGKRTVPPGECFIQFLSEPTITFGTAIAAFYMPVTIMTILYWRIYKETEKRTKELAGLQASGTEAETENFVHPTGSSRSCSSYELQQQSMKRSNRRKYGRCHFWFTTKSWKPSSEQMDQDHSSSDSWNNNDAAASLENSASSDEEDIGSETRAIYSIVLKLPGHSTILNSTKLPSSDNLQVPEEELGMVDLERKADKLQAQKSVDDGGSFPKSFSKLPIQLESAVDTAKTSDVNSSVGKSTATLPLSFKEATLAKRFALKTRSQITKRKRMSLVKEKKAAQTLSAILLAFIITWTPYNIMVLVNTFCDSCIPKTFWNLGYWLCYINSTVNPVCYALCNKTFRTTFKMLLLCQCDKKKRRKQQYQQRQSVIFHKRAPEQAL

Take `OC(c1ccnc(Cl)c1)(c1ccc2c(cnn2-c2ccc(F)cc2)c1)C(F)(F)F` (single isomer, unassigned; (-)): the inhibition in [1], in data set [2], in [3], in data set [5], in data set [7] and in [8] was less than 50% throughout. Also, the inhibition in [10], in [11], in data set [13], in [14], in data set [15] and in [16] was less than 50% in each case. The inhibition in data set [17], in data set [18], in [19], in [20] and in data set [22] was less than 50% each time. In addition, the Ratio in data set [4], in data set [6] and in data set [21] was more than 1000 each time. The molecule further gave an inhibition at 1 µM in data set [9] of less than 50%. The EC50 in data set [12] came out at 627 nM.

Regarding `Cc1cc(C(O)(c2ccc3c(cnn3-c3ccc(F)cc3)c2)C(F)(F)F)ccc1F` (single isomer, unassigned; (-)), the inhibition in data set [1], in [2], in data set [3], in data set [5], in data set [7] and in [8] was less than 50% in each case. Further, the inhibition in data set [10], in data set [11], in [13], in data set [14], in data set [15] and in [16] was less than 50% each time. For the same molecule, the inhibition in [17], in data set [18], in [19], in [20] and in [22] was less than 50% throughout. The Ratio in data set [4], in data set [6] and in data set [21] was more than 1000 in each case. The inhibition at 1 µM in data set [9] is less than 50%. Besides, the EC50 in [12] was determined as 93 nM.
